# Measured values published in patent publication US9695155B2, “Herbicidal substituted pyrimidinyloxy benzene compounds” (E. I. DU PONT DE NEMOURS AND COMPANY, priority 2013, dated 2017).
# Experiments:
# Experiment in all cases: Test E preemergence
# palmer pigweed = assay type: in vivo, Amaranthus palmeri; settings: for Pigweed, Palmer plant response rating: scale 0 to 100 (0 no effect, 100 complete control)
# Source text: (§1) Seeds of plant species selected from corn (Zea mays), soybean (Glycine max), velvetleaf (Abutilon theophrasti), lambsquarters (Chenopodium album), wild poinsettia (Euphorbia heterophylla), palmer pigweed (Amaranthus palmeri), waterhemp (common waterhemp, Amaranthus rudis), surinam grass (Brachiaria decumbens), large (Lg) crabgrass (Digitaria sanguinalis), Brazilian crabgrass (Digitaria horizontalis), fall panicum (Panicum dichotomiflorum), giant foxtail (Setaria faberii), green foxtail (Setaria viridis), goosegrass (Eleusine indica), johnsongrass (Sorghum halepense), ragweed (common ragweed, Ambrosia elatior), barnyardgrass (Echinochloa crus-galli), sandbur (southern sandbur, Cenchrus echinatus), arrowleaf sida (Sida rhombifolia), Italian ryegrass (Lolium multiflorum), dayflower (Virginia (VA) dayflower, Commelina virginica), field bindweed (Convolvulus arvensis), morningglory (Ipomoea coccinea), nightshade (eastern black nightshade, Solanum ptycanthum), kochia (Kochia scoparia), yellow nutsedge (Cyperus esculentus), cocklebur (common cocklebur, Xanthium strumarium), smartweed (ladysthumb smartweed, and hairy beggarticks (Bidens pilosa), were planted into a silt loam soil and treated preemergence with test chemicals formulated in a non-phytotoxic solvent mixture which included a surfactant.
# (§2) At the same time, plants from these crop and weed species and also horseweed (Canada horseweed, Conyza canadensis), waterhemp_RES1, (ALS & Triazine resistant common waterhemp, Amaranthus rudis), and waterhemp_RES2, (ALS & HPPD resistant common waterhemp, Amaranthus rudis) were planted in pots containing Redi-Earth® planting medium (Scotts Company, 14111 Scottslawn Road, Marysville, Ohio 43041) comprising spaghnum peat moss, vermiculite, wetting agent and starter nutrients were treated with postemergence applications of test chemicals formulated in the same manner. Plants ranged in height from 2 to 18 cm for postemergence treatments (1- to 4-leaf stage). Treated plants and controls were maintained in a greenhouse for 14 to 21 days, after which time all species were compared to controls and visually evaluated. Plant response ratings, summarized in Table E, are based on a scale of 0 to 100 where 0 is no effect and 100 is complete control. A dash (-) response means no test result.
# morningglory = assay type: in vivo, Ipomoea coccinea; settings: for Morningglory plant response rating: scale 0 to 100 (0 no effect, 100 complete control)
# Source text: as §1, §2
# surinam grass = assay type: in vivo, Brachiaria decumbens; settings: for Surinam Grass plant response rating: scale 0 to 100 (0 no effect, 100 complete control)
# Source text: as §1, §2
# velvetleaf = assay type: in vivo, Abutilon theophrasti; settings: for Velvetleaf plant response rating: scale 0 to 100 (0 no effect, 100 complete control)
# Source text: as §1, §2
# goosegrass = assay type: in vivo, Eleusine indica; settings: for Goosegrass plant response rating: scale 0 to 100 (0 no effect, 100 complete control)
# Source text: as §1, §2
# arrowleaf sida = assay type: in vivo, Sida rhombifolia; settings: for Arrowleaf Sida plant response rating: scale 0 to 100 (0 no effect, 100 complete control)
# Source text: as §1, §2
# giant foxtail = assay type: in vivo, Setaria faberii; settings: for Foxtail, Giant plant response rating: scale 0 to 100 (0 no effect, 100 complete control)
# Source text: as §1, §2
# field bindweed = assay type: in vivo, Convolvulus arvensis; settings: for Field Bindweed plant response rating: scale 0 to 100 (0 no effect, 100 complete control)
# Source text: as §1, §2
# corn = assay type: in vivo, Zea mays; settings: for Corn plant response rating: scale 0 to 100 (0 no effect, 100 complete control)
# Source text: as §1, §2
# soybean = assay type: in vivo, Glycine max; settings: for Soybean plant response rating: scale 0 to 100 (0 no effect, 100 complete control)
# Source text: as §1, §2
# green foxtail = assay type: in vivo, Setaria viridis; settings: for Foxtail, Green plant response rating: scale 0 to 100 (0 no effect, 100 complete control)
# Source text: as §1, §2
# [1] = 125 g ai/ha, scale 0 to 100, 0 no effect, 100 complete control
# [2] = preemergence, 125 g ai/ha, scale 0 to 100, 0 no effect, 100 complete control
# [3] = 8 g ai/ha, scale 0 to 100, 0 is no effect, 100 is complete control
# [4] = 250 g ai/ha, scale 0 to 100, 0 no effect, 100 complete control
compound,measurement,setting,value
Cc1cnc(Oc2cccc(C#N)c2-n2cc(C#N)cn2)nc1 [Compound 90],"Pigweed, Palmer plant response rating",palmer pigweed; 16 g ai/ha,0
same,"Pigweed, Palmer plant response rating",palmer pigweed; 31 g ai/ha,0
same,"Pigweed, Palmer plant response rating",palmer pigweed; 62 g ai/ha,0
same,"Plant response rating, Pigweed, Palmer",palmer pigweed; [1],65
same,Morningglory plant response rating,morningglory; 16 g ai/ha,0
same,Morningglory plant response rating,morningglory; 31 g ai/ha,0
same,Morningglory plant response rating,morningglory; 62 g ai/ha,20
same,"Plant response rating, Morningglory",morningglory; [1],35
same,Surinam Grass plant response rating,surinam grass; 16 g ai/ha,0
same,Surinam Grass plant response rating,surinam grass; 31 g ai/ha,0
same,Surinam Grass plant response rating,surinam grass; 62 g ai/ha,0
same,"Plant response rating, Surinam Grass",surinam grass; [1],0
same,Velvetleaf plant response rating,velvetleaf; 16 g ai/ha,0
same,Velvetleaf plant response rating,velvetleaf; 31 g ai/ha,20
same,Velvetleaf plant response rating,velvetleaf; 62 g ai/ha,60
same,"Plant response rating, Velvetleaf",velvetleaf; [1],85
same,Goosegrass plant response rating,goosegrass; 16 g ai/ha,0
same,Goosegrass plant response rating,goosegrass; 31 g ai/ha,0
same,Goosegrass plant response rating,goosegrass; 62 g ai/ha,5
same,"Plant response rating, Goosegrass",goosegrass; [1],50
same,Arrowleaf Sida plant response rating,"arrowleaf sida; 16 g ai/ha, preemergence",20
same,Arrowleaf Sida plant response rating,"arrowleaf sida; 31 g ai/ha, preemergence",50
same,"Plant response rating, Arrowleaf Sida","arrowleaf sida; Preemergence, 62 g ai/ha, scale 0 to 100, 0 no effect, 100 complete control",75
same,"Plant response rating, Arrowleaf Sida",arrowleaf sida; [2],90
same,"Foxtail, Giant plant response rating",giant foxtail; 16 g ai/ha,0
same,"Foxtail, Giant plant response rating",giant foxtail; 31 g ai/ha,0
same,"Foxtail, Giant plant response rating",giant foxtail; 62 g ai/ha,15
same,"Plant response rating, Foxtail, Giant",giant foxtail; [1],50
same,Field Bindweed plant response rating,field bindweed; 16 g ai/ha,35
same,Field Bindweed plant response rating,field bindweed; 31 g ai/ha,50
same,Field Bindweed plant response rating,field bindweed; 62 g ai/ha,70
same,"Plant response rating, Field Bindweed",field bindweed; [1],65
same,Corn plant response rating,corn; 16 g ai/ha,0
same,Corn plant response rating,corn; 31 g ai/ha,0
same,Corn plant response rating,corn; 62 g ai/ha,0
same,"Plant response rating, Corn",corn; [1],0
same,Soybean plant response rating,soybean; 31 g ai/ha,15
same,Soybean plant response rating,soybean; 62 g ai/ha,30
same,"Plant response rating, Soybean",soybean; [1],35
same,"Foxtail, Green plant response rating",green foxtail; 16 g ai/ha,0
same,"Foxtail, Green plant response rating",green foxtail; 31 g ai/ha,0
same,"Foxtail, Green plant response rating",green foxtail; 62 g ai/ha,10
same,"Plant response rating, Foxtail, Green",green foxtail; [1],50
NC(=S)c1cccc(Oc2ncc(Cl)cn2)c1-n1cc(Cl)cn1 [Compound 292],"Plant response rating, Pigweed, Palmer",palmer pigweed; [3],0
same,"Pigweed, Palmer plant response rating",palmer pigweed; 31 g ai/ha,35
same,"Pigweed, Palmer plant response rating",palmer pigweed; 62 g ai/ha,100
same,"Plant response rating, Pigweed, Palmer",palmer pigweed; [1],100
same,"Plant response rating, Morningglory",morningglory; [3],0
same,Morningglory plant response rating,morningglory; 31 g ai/ha,0
same,Morningglory plant response rating,morningglory; 62 g ai/ha,15
same,"Plant response rating, Morningglory",morningglory; [1],50
same,"Plant response rating, Surinam Grass",surinam grass; [3],0
same,Surinam Grass plant response rating,surinam grass; 31 g ai/ha,0
same,Surinam Grass plant response rating,surinam grass; 62 g ai/ha,10
same,"Plant response rating, Surinam Grass",surinam grass; [1],20
same,"Plant response rating, Velvetleaf",velvetleaf; [3],0
same,Velvetleaf plant response rating,velvetleaf; 31 g ai/ha,30
same,Velvetleaf plant response rating,velvetleaf; 62 g ai/ha,35
same,"Plant response rating, Velvetleaf",velvetleaf; [1],90
same,"Plant response rating, Goosegrass",goosegrass; [3],0
same,Goosegrass plant response rating,goosegrass; 31 g ai/ha,20
same,Goosegrass plant response rating,goosegrass; 62 g ai/ha,50
same,"Plant response rating, Goosegrass",goosegrass; [1],70
same,"Plant response rating, Arrowleaf Sida","arrowleaf sida; 8 g ai/ha, preemergence, scale 0 to 100, 0 is no effect, 100 is complete control",0
same,Arrowleaf Sida plant response rating,"arrowleaf sida; 16 g ai/ha, preemergence",0
same,Arrowleaf Sida plant response rating,"arrowleaf sida; 31 g ai/ha, preemergence",5
same,Arrowleaf Sida plant response rating,"arrowleaf sida; 62 g ai/ha, preemergence",5
same,"Plant response rating, Arrowleaf Sida",arrowleaf sida; [2],80
same,"Plant response rating, Foxtail, Giant",giant foxtail; [3],0
same,"Foxtail, Giant plant response rating",giant foxtail; 16 g ai/ha,0
same,"Foxtail, Giant plant response rating",giant foxtail; 31 g ai/ha,5
same,"Foxtail, Giant plant response rating",giant foxtail; 62 g ai/ha,80
same,"Plant response rating, Foxtail, Giant",giant foxtail; [1],95
same,"Plant response rating, Field Bindweed",field bindweed; [3],0
same,Field Bindweed plant response rating,field bindweed; 16 g ai/ha,0
same,Field Bindweed plant response rating,field bindweed; 31 g ai/ha,5
same,Field Bindweed plant response rating,field bindweed; 62 g ai/ha,30
same,"Plant response rating, Field Bindweed",field bindweed; [1],65
same,"Plant response rating, Corn",corn; [3],0
same,Corn plant response rating,corn; 16 g ai/ha,0
same,Corn plant response rating,corn; 31 g ai/ha,0
same,Corn plant response rating,corn; 62 g ai/ha,0
same,"Plant response rating, Corn",corn; [1],0
same,"Plant response rating, Soybean",soybean; [3],0
same,Soybean plant response rating,soybean; 31 g ai/ha,0
same,Soybean plant response rating,soybean; 62 g ai/ha,40
same,"Plant response rating, Soybean",soybean; [1],50
same,"Plant response rating, Foxtail, Green",green foxtail; [3],0
same,"Foxtail, Green plant response rating",green foxtail; 16 g ai/ha,0
same,"Foxtail, Green plant response rating",green foxtail; 31 g ai/ha,10
same,"Foxtail, Green plant response rating",green foxtail; 62 g ai/ha,25
same,"Plant response rating, Foxtail, Green",green foxtail; [1],75
Cc1cnc(Oc2cccc(C#N)c2-n2cc(C(F)(F)F)cn2)nc1 [Compound 180],"Pigweed, Palmer plant response rating",palmer pigweed; 31 g ai/ha,0
same,"Pigweed, Palmer plant response rating",palmer pigweed; 62 g ai/ha,0
same,"Plant response rating, Pigweed, Palmer",palmer pigweed; [1],75
same,"Plant response rating, Pigweed, Palmer",palmer pigweed; [4],90
same,Morningglory plant response rating,morningglory; 31 g ai/ha,0
same,Morningglory plant response rating,morningglory; 62 g ai/ha,15
same,"Plant response rating, Morningglory",morningglory; [1],60
same,"Plant response rating, Morningglory",morningglory; [4],100
same,Surinam Grass plant response rating,surinam grass; 31 g ai/ha,10
same,Surinam Grass plant response rating,surinam grass; 62 g ai/ha,25
same,"Plant response rating, Surinam Grass",surinam grass; [1],75
same,"Plant response rating, Surinam Grass",surinam grass; [4],100
same,Velvetleaf plant response rating,velvetleaf; 31 g ai/ha,35
same,Velvetleaf plant response rating,velvetleaf; 62 g ai/ha,80
same,"Plant response rating, Velvetleaf",velvetleaf; [1],100
same,"Plant response rating, Velvetleaf",velvetleaf; [4],100
same,Goosegrass plant response rating,goosegrass; 31 g ai/ha,70
same,Goosegrass plant response rating,goosegrass; 62 g ai/ha,90
same,"Plant response rating, Goosegrass",goosegrass; [1],98
same,"Plant response rating, Goosegrass",goosegrass; [4],100
same,Arrowleaf Sida plant response rating,"arrowleaf sida; 31 g ai/ha, preemergence",15
same,Arrowleaf Sida plant response rating,"arrowleaf sida; 62 g ai/ha, preemergence",30
same,"Plant response rating, Arrowleaf Sida",arrowleaf sida; [2],70
same,"Plant response rating, Arrowleaf Sida","arrowleaf sida; preemergence, 250 g ai/ha, scale 0 to 100, 0 no effect, 100 complete control",85
same,"Foxtail, Giant plant response rating",giant foxtail; 31 g ai/ha,75
same,"Foxtail, Giant plant response rating",giant foxtail; 62 g ai/ha,100
same,"Plant response rating, Foxtail, Giant",giant foxtail; [1],100
same,"Plant response rating, Foxtail, Giant",giant foxtail; [4],100
same,Field Bindweed plant response rating,field bindweed; 31 g ai/ha,10
same,Field Bindweed plant response rating,field bindweed; 62 g ai/ha,25
same,"Plant response rating, Field Bindweed",field bindweed; [1],65
same,"Plant response rating, Field Bindweed",field bindweed; [4],90
same,Corn plant response rating,corn; 31 g ai/ha,0
same,Corn plant response rating,corn; 62 g ai/ha,15
same,"Plant response rating, Corn",corn; [1],40
same,"Plant response rating, Corn",corn; [4],65
same,Soybean plant response rating,soybean; 31 g ai/ha,35
same,Soybean plant response rating,soybean; 62 g ai/ha,70
same,"Plant response rating, Soybean",soybean; [1],90
same,"Plant response rating, Soybean",soybean; [4],98
same,"Foxtail, Green plant response rating",green foxtail; 31 g ai/ha,65
same,"Foxtail, Green plant response rating",green foxtail; 62 g ai/ha,100
same,"Plant response rating, Foxtail, Green",green foxtail; [1],100
same,"Plant response rating, Foxtail, Green",green foxtail; [4],100
